Data from paper PMC6452685, “Lysyl-tRNA synthetase as a drug target in malaria and cryptosporidiosis” (Proceedings of the National Academy of Sciences of the …, 2019).
Read-outs that look alike come from different tables or passages of the source.

How the values were obtained:
PfKRS1 = PfKRS1 (Plasmodium falciparum, UniProt Q8IDJ8); assay: Recombinant KRS thermal shift assay, PfKRS1; format: binding; design: recombinant PfKRS1 (77–583 and 80–583); 6xHis (N); made in house; host or cells: E. coli Rosetta BL21(DE3), vector pAVA0421; conditions: 40 µM inhibitor
PfKRS1, sequence (Q8IDJ8 77-583): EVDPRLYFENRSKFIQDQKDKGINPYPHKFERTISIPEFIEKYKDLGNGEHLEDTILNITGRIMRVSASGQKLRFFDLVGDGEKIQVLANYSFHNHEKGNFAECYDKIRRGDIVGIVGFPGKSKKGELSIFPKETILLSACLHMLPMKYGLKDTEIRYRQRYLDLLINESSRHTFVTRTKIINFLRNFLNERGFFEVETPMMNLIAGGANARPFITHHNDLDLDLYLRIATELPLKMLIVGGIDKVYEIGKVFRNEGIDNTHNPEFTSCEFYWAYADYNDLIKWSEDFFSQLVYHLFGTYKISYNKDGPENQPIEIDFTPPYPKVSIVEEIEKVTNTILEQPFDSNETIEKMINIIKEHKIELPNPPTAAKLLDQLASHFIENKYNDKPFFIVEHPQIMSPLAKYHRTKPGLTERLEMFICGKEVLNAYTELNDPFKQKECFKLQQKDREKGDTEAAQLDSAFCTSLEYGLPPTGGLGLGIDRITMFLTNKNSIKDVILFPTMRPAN
Protocol: (§1) 2.9 Recombin ant KR S thermal shift assays ( UW)
(§2) Recombi nant PfKRS1, CpKRS, and HsKRS were di l u ted to 4 µM in assay buffe r c ontaining 20 mM Tris-HC l pH 8, 200 mM NaC l , 5 mM DTT, 5 mM MgC l2 and l i gands (1 mM lysi ne; 40 µM ATP; and 40 µM inhibitors) in various combinations. Ali quot s (10 µl) were added to a 96-well PCR plate and incubated at ambi ent temperature for 15 mi n. SYPRO® Ora n g e dye (I nv itrog en) was di l uted i n ass ay buffer to a 5x concent rat i on a nd 1 0 µl was added to t he P C R pl at e t o bri ng t he fi nal as s ay v ol ume t o 20 µl. The pl at e w as s eal ed and pul s e cent ri fug ed t o cons ol i dat e t he as s ay mix t ure and remov e ai r bu bbl es .
(§3) Us i ng a StepOne Pl us RT-PCR thermal cycler (Ap plied Biosystems) to monitor fluorescence at a n excitation/emission wavelength of 300/470-570 nm, the samples were heated from 25° C to 99° C at a ramp rate of .016° C/sec. Graphpa d® P rism software (GraphPad S oftware, San Diego, CA) was used to determine melting temperatures (Tm) us i ng Bol tzmann s i g moi dal analys is .
(§4) Table S3. Thermal shift data for compounds with P fKRS1, Cp KRS a nd Hs KRS.
(§5) Com poun d Eff ects o n Lys R S M elti ng Tem pe ratu re ( ∆Tm) […]

HsKRS = molecular target: T1, HsKRS (Homo sapiens, UniProt Q15046); assay: Recombinant KRS thermal shift assay, HsKRS; format: binding; conditions: 40 µM inhibitor
T1 construct: HsKRS (full-length) proteins; 6xHis (N); made in house; host or cells: E. coli Rosetta BL21(DE3), vector pAVA0421 (UW); template pET28a-KRS
T1 sequence (Q15046 whole entry): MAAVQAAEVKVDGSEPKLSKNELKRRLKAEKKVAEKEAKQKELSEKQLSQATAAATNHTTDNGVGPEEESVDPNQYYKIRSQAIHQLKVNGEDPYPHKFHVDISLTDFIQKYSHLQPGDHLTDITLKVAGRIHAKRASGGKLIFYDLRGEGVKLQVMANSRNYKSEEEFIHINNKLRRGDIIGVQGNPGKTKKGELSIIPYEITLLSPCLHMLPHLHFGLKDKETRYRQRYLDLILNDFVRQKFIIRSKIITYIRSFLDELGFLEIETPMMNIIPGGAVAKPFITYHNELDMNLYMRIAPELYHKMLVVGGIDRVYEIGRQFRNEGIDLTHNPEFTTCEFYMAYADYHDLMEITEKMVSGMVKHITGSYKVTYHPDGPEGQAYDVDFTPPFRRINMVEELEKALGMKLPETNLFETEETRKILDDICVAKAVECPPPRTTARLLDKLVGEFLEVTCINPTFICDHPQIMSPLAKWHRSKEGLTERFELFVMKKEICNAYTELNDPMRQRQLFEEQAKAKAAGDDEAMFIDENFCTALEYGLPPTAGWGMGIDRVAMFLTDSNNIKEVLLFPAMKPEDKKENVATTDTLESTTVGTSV
Protocol: as §1, §2, §3, §4, §5

[1] = Intrinsic clearance in mouse liver microsomes; format: in vitro ADME
Protocol: 4.4 Int r ins ic C le ar ance (CLi) experiments […]
HUE50H ). The procedure was carried out as reported prev i ous l y (15). […] Immediately, at time zero, then at 3, 6, 9, 15 and 30 min an aliquot ( 50 μl) o f the i ncubati on mi x ture was remov ed and mi x ed with acetonitrile (100 μl) contai ni ng i nternal s tandard to stop the reaction. […] XLfi t software (I DBS, Guildford UK) was used to cal cul ate the exponenti al decay and consequentl y the rate cons tant (ke-1) from the rati o of peak area of tes t compou nd to i nternal s tandard at each ti me poi nt .
The rate o f i ntri nsi c cl earance (CLi ) of each test compoun d was then cal cul ated usi ng the f ol l owi ng […]
CLi (ml /mi n/g li ver) = ke-1 x V x Microsomal protein yield […]
where V (ml/mg protein) is the incubation volume/mg protein added (0.5) and microsomal protein yield is taken as being 52.5 mg protein per g liver. Verapami l (0. 5 µ M ) w as us ed as a pos i t i v e cont rol to confirm ac ceptable assay performance. […]
Cryopreserved mouse (batch MC539) and huma n (batch HU E50H) hepatocytes were supplied by ThermoFi sher Sci enti fi c, Pai sl ey, UK and Xenotech, LLC, respectively. Cryopreserved hepatocytes were rapidly thawed in a pre-heat ed w at er bat h at 37 °C before ad di ng to 50 ml of pre-warmed CHRM medi a (ThermoFi sher Sci enti fi c, Paisley, UK) and mi xed gentl y. […] […] 5 mi l li on v i abl e cel l s /ml i n s uppl emented W ME. Onl y s us pens i ons whi ch ac hi ev ed >80% pos t-thaw viability were us ed i n ex peri ment s . […]
DMSO and 0.25 million cells/ml. […]

[2] = system: Plasmodium falciparum 3D7; assay: P. falciparum 3D7 growth inhibition (SYBR green I); format: cell-based; conditions: for EC50: Plasmodium falciparum, P. falciparum 3D7 bloodstream, read-out: Pf(3D7) EC50
From the text: 3.2 Cytotoxicity Studies (Dundee)
In vi t ro cy totox i ci ty s tudies can be ca rri ed out us i ng Hep G 2 (Human C aucas i an hepatocy te ca rci noma, ECACC cat. no. 850 114 30) us ed as i ndi cators f or g eneral mammal i an cel l tox i ci ty . […]
3.3 In vitro Cell Assay D ata Analysis (Du ndee) […]
as 0%. Qual i ty control c ri teri a for passi ng pl ates were as fol l ow s : Z’ > 0.
< 15 . T he f ormula used to calculate Z’ is 1- 3´ (St D e v _ hi gh + St D e v_ low) . […]
Al l EC50 Curve fitti ng was undertaken usi ng XLFi t versi on 4.2 usi ng Model 205 wi th the foll owi ng 4 paramet ri c equat i on: A + (?-A) ,where A=% i nhi bi ti on at bo ttom, B=% i nhi bi ti on at top, C= EC , […]
D= slope, x= inhibitor concentration a nd y= % inhibition. […]
was fixed to 100 only when at least 50% of inhibition was reached.

CpKRS = CpKRS (Cryptosporidium parvum, UniProt Q5CR27); assay: Recombinant KRS thermal shift assay, CpKRS; format: binding; conditions: 40 µM inhibitor
CpKRS, sequence (Q5CR27 entry or part of it): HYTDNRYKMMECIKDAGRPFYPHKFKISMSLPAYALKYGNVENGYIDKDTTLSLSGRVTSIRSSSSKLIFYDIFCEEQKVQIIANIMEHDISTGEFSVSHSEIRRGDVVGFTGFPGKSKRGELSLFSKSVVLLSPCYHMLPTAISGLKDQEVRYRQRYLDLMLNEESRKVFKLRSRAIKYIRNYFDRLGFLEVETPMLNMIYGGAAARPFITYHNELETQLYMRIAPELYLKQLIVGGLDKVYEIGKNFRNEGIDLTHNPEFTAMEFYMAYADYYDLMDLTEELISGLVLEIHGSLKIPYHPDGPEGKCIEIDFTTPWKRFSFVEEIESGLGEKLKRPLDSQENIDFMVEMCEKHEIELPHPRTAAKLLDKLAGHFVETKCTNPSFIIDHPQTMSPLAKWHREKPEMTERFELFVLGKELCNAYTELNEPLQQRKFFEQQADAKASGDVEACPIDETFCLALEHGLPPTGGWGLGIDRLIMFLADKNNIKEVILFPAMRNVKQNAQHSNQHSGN
Protocol: as §1, §2, §3, §4, §5

[3] = read-out: ΔTm PfKRS, ATP + Lysine
[4] = read-out: ΔTm PfKRS, no substrate

Work on `C[C@H]1CCC[C@H](C[C@H]2Cc3cc(O)cc(O)c3C(=O)O2)O1` [Compound 1, cladosporin, reference compound] yielded a ΔTm at 40 µM (PfKRS1; ATP + Lysine, read-out: ΔTm PfKRS) of 7.2 °C, a ΔTm at 40 µM (PfKRS1; ATP, read-out: ΔTm PfKRS) of 3.5 °C and a ΔTm at 40 µM (PfKRS1; Lysine, read-out: ΔTm PfKRS) of 9.3 °C. It also gave a ΔTm at 40 µM (PfKRS1; no substrate, read-out: ΔTm PfKRS) of 3.4 °C, a ΔTm at 40 µM (HsKRS; ATP + Lysine) of -8.2 °C and a ΔTm at 40 µM (HsKRS; ATP) of 0.3 °C. The ΔTm at 40 µM (HsKRS; Lysine) was -9.2 °C, the ΔTm at 40 µM (HsKRS; no substrate) was -0.1 °C and the “MLM CLi” value [1] was 20 mL/min/g. It also gave an EC50 [2] of 73 nM, a ΔTm at 40 µM (CpKRS; ATP + Lysine) of 14 °C and a ΔTm at 40 µM (CpKRS; ATP) of 0.1 °C. It also gave a ΔTm at 40 µM (CpKRS; Lysine) of 19.5 °C and a ΔTm at 40 µM (CpKRS; no substrate) of -0.1 °C.
Work on `O=C(NCC1CCCCC1)c1cc(=O)c2ccccc2o1` [Compound 2] yielded a ΔTm at 40 µM (PfKRS1; [3]) of 5.1 °C, a ΔTm at 40 µM (PfKRS1; read-out: ΔTm PfKRS, ATP) of 0.9 °C and a ΔTm at 40 µM (PfKRS1; read-out: ΔTm PfKRS, Lysine) of 7.4 °C. For the same compound, the ΔTm at 40 µM (PfKRS1; [4]) was 1.2 °C, the ΔTm at 40 µM (HsKRS; ATP + Lysine) was -8.6 °C and the ΔTm at 40 µM (HsKRS; ATP) was 0.3 °C. The ΔTm at 40 µM (HsKRS; Lysine) was -10 °C, the ΔTm at 40 µM (HsKRS; no substrate) was -0.3 °C and the “MLM CLi” value [1] was greater than 50 mL/min/g. For the same compound, the “Microsomal stability CLint” value [1] was greater than 50 mL⋅min^−1⋅g^−1, the EC50 [2] was 190 nM and the ΔTm at 40 µM (CpKRS; ATP + Lysine) was 11.7 °C. The ΔTm at 40 µM (CpKRS; ATP) was 0.7 °C, the ΔTm at 40 µM (CpKRS; Lysine) was 19.3 °C and the ΔTm at 40 µM (CpKRS; no substrate) was 0 °C.
`O=C(NCC1CCCCC1)c1cc(=O)c2cc(F)ccc2o1` [Compound 3] gave a ΔTm at 40 µM (PfKRS1; [3]) of 2.4 °C, a ΔTm at 40 µM (PfKRS1; read-out: ΔTm PfKRS, ATP) of 0.2 °C and a ΔTm at 40 µM (PfKRS1; read-out: ΔTm PfKRS, Lysine) of 5.3 °C. For the same compound, the ΔTm at 40 µM (PfKRS1; [4]) was 0.5 °C, the ΔTm at 40 µM (HsKRS; ATP + Lysine) was -10.8 °C and the ΔTm at 40 µM (HsKRS; ATP) was 0.4 °C. For the same compound, the ΔTm at 40 µM (HsKRS; Lysine) was -8.4 °C, the ΔTm at 40 µM (HsKRS; no substrate) was -0.1 °C and the “MLM CLi” value [1] was 23 mL/min/g. For the same compound, the EC50 [2] was 290 nM, the ΔTm at 40 µM (CpKRS; ATP + Lysine) was 0.8 °C and the ΔTm at 40 µM (CpKRS; ATP) was 0.2 °C. The ΔTm at 40 µM (CpKRS; Lysine) was 1.2 °C and the ΔTm at 40 µM (CpKRS; no substrate) was -0.2 °C.
With `O=C(NCC1(O)CCCCC1)c1cc(=O)c2cc(F)ccc2o1` [Compound 4] the ΔTm at 40 µM (PfKRS1; [3]) was 5.1 °C, the ΔTm at 40 µM (PfKRS1; read-out: ΔTm PfKRS, ATP) was 0.5 °C and the ΔTm at 40 µM (PfKRS1; read-out: ΔTm PfKRS, Lysine) was 7.5 °C. The ΔTm at 40 µM (PfKRS1; [4]) was 0.9 °C, the ΔTm at 40 µM (HsKRS; ATP + Lysine) was -7.2 °C and the ΔTm at 40 µM (HsKRS; ATP) was -0.1 °C. For the same compound, the ΔTm at 40 µM (HsKRS; Lysine) was -7.4 °C, the ΔTm at 40 µM (HsKRS; no substrate) was -0.5 °C and the “MLM CLi” value [1] was 3 mL/min/g. The EC50 [2] was 180 nM, the ΔTm at 40 µM (CpKRS; ATP + Lysine) was 11.8 °C and the ΔTm at 40 µM (CpKRS; ATP) was 0 °C. The ΔTm at 40 µM (CpKRS; Lysine) was 18.4 °C and the ΔTm at 40 µM (CpKRS; no substrate) was -0.2 °C.
`O=C(NCC1(O)CCC(F)(F)CC1)c1cc(=O)c2cc(F)ccc2o1` [Compound 5] showed a ΔTm at 40 µM (PfKRS1; [3]) of 5.3 °C, a ΔTm at 40 µM (PfKRS1; read-out: ΔTm PfKRS, ATP) of 0.9 °C and a ΔTm at 40 µM (PfKRS1; read-out: ΔTm PfKRS, Lysine) of 7.5 °C. The ΔTm at 40 µM (PfKRS1; [4]) was 1.3 °C, the ΔTm at 40 µM (HsKRS; ATP + Lysine) was -7.4 °C and the ΔTm at 40 µM (HsKRS; ATP) was 0.4 °C. The ΔTm at 40 µM (HsKRS; Lysine) was -7.6 °C, the ΔTm at 40 µM (HsKRS; no substrate) was 0.3 °C and the “MLM CLi” value [1] was 1 mL/min/g. For the same compound, the “Microsomal stability CLint” value [1] was 1 mL⋅min^−1⋅g^−1, the “cellular selectivity between P. falciparum parasites and human HepG2 cells” value [2] was 180 fold and the EC50 [2] was 270 nM. For the same compound, the ΔTm at 40 µM (CpKRS; ATP + Lysine) was 13 °C, the ΔTm at 40 µM (CpKRS; ATP) was -0.2 °C and the ΔTm at 40 µM (CpKRS; Lysine) was 14.7 °C. For the same compound, the ΔTm at 40 µM (CpKRS; no substrate) was -0.5 °C.
